Reference: patent publication US6545131B1, “Tissue specific prodrug” (priority 1997, dated 2003)
Starred links: 1 amine or outer side, 2 acyl side, 3 side chain; linkers in the order of their positions; H or OH if unused. Residues, ends and D or L forms follow the SMILES beside them. *: point of attachment. AMC = Cc1cc(=O)oc2cc(N*)ccc12; Morpholide = C1CN(*)CCO1; CO = O=C([*:1])[*:2]

How the values were obtained:
TSU-Pr1 cells = assay: Clonogenic survival of TSU-Pr1 cells after 72 hours exposure to TG analogs; type: cell-based, human; settings: TSU-Pr1, 72 hours exposure; mean (n=5) ± standard error; read-out: LC50 (concentration needed to kill 50% of clonogenic cells)
Description: The primary amine-containing thapsigargin analogs of the invention have non-specific toxicity toward cells. This toxicity is measured as the concentration of analog needed to kill 50% of clonogenic cells (LC50). The LC50 of the analogs of the invention is desirably at most 20 μM, preferably at most 5 μM, and more preferably at most 500 nM of analog.
Percentage clonogenic survival of TSU-Pr1 (2×10^5 cells) following 72 hours of exposure to varying concentrations of TG analogs was performed as described in Martikainen et al. Cancer Res., 51, 4693-4700 (1991).
(§1) The IC50 results are mean (n=3)±standard error. The LC50 results are mean (n=5)±standard error. The entry “ND” stands for “not determined”. Clonogenic survival not determined above 10 μM for dBTG. Analogs with −boc have a t-butoxycarbonyl (boc) protected amino group.
The androgen responsive PSA-producing LNCaP and androgen independent PSA non-producing TSU-Pr1 are human prostate cancer lines were obtained from ATCC (Rockville, Md.) and maintained by serial passage in RPMI 1640 media containing 10% fetal calf serum with 100 units/ml penicillin G, and 100 units/ml streptomycin sulfate (antibiotics from M.A. Bioproducts, Walkerville, Md.) as standard media in 5% CO2/95% air at 37° C. The origins and characteristics of the LNCaP and TSU-Pr1 cell lines are described in Horoszewicz, et al., Cancer Res., 43:1809-1818, (1980)and Iizumi, et al., J. Urol, 137: 1304-1306, (1987).

[1] = target: T1, endoplasmic reticulum Ca2+-ATPase (SERCA), SR vesicles from rabbit skeletal muscle (Oryctolagus cuniculus, UniProt P04191); assay: SERCA inhibition: 45Ca2+ uptake to sarcoplasmic reticulum vesicles; type: biochemical; settings: mean (n=3) ± standard error; 5 μg/ml SR protein, free Ca2+ 100 nM, 4 min uptake; read-out: IC50 (50% inhibition of 45Ca2+ uptake to SR vesicles)
T1 construct: sarcoplasmic reticulum (SR) vesicles prepared from rabbit skeletal muscle; from tissue; host or cells: rabbit skeletal muscle sarcoplasmic reticulum vesicles
T1 sequence (P04191 1-994 isoform P04191-2): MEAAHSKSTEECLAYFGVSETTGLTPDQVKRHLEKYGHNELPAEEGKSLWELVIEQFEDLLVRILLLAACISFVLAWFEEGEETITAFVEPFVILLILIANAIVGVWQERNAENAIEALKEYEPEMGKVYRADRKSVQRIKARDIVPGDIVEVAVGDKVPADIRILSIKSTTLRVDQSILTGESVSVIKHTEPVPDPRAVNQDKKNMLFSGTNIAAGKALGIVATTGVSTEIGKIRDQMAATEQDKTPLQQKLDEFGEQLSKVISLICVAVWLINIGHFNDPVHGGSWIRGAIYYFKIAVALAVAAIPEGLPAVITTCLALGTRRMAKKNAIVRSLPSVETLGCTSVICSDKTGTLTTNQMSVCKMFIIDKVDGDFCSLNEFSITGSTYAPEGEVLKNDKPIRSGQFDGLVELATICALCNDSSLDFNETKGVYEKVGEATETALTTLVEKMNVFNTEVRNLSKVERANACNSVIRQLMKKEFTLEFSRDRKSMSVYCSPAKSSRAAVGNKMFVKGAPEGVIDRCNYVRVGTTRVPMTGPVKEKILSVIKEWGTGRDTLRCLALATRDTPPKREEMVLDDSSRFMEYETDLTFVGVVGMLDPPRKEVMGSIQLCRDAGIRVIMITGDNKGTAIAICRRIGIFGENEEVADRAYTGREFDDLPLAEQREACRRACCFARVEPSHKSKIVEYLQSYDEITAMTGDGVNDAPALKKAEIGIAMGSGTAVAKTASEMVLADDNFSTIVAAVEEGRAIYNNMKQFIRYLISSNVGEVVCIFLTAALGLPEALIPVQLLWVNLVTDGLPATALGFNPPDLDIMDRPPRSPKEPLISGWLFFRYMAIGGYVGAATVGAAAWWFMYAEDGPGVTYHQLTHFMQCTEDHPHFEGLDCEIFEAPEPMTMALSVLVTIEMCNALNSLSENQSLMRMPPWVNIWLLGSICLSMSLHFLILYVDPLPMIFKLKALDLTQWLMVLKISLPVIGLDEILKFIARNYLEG
Description: The primary amine-containing thapsigargin analogs of the invention have endoplasmic reticulum Ca^2+-ATPase inhibitory activity. This activity is measured as the concentration of analog needed to inhibit 50% of this ATPase (IC50). The IC50 of the analogs of the invention is desirably at most 500 nM, preferably at most 200 nM, and more preferably at most 50 nM of analog.
The inhibitory potency of thapsigargin and its analogs was determined as the concentration required to produce 50% inhibition (i.e. IC50) of ^45Ca^2+ uptake to sarcoplasmic reticulum (SR) vesicles prepared from rabbit skeletal muscle by the method of De Meis and Hasselbach (J. Biol. Chem., 246: 4759-4763, 1971). The ^45Ca^2+ uptake assay was as described previously (Christensen, et al., FEBS, 335: 345-348, 1993), with the following modifications: 5 μg/ml of SR protein was incubated at 25EC and free Ca^2+ adjusted to 100 nM using 4 min. uptake time. Under these conditions, Ca^2+ could proceed linearly with time for at least 8 minutes. Measurements of Ca^2+ within TSU cells was determined as described previously (Lin et al., The Prostate, 33:201-207, 1997).
as §1

thrombin = target: T2, thrombin (Homo sapiens, UniProt P00734); assay: Peptide-AMC cleavage by purified extracellular protease; type: biochemical; settings: 0.2 mM substrate, PSA assay buffer pH 7.8
T2 construct: purchased Sigma Chemical Co
Description: (§2) The peptides discussed herein were custom synthesized by Enzyme Systems Products (Dublin, Calif.) and, after HPLC separation and purification to >95%, the molecular weights were confirmed by mass spectroscopy. All peptides had morpholinocarbonyl protecting the amino terminus and 7-amino-4-methylcoumarin (AMC) attached via an amide bond to the carboxyl group of the carboxy-terminal amino acid. Peptides were first dissolved in distilled water (5 mM) and then diluted into PSA assay buffer (50 mM Tris/0.1M NaCl pH 7.8). The glutamine-AMC peptide had the amino terminus and side chain amine unprotected and was obtained from Bachem (Torrance, Calif.).
(§3) PSA was purified from human seminal plasma as described in Christensson, et al. Eur. J. Biochem. 194:755-765, (1990). Plasmin, urokinase, tissue plasminogen activator (TPA), human plasma and porcine pancreatic kallikrein and a 1-antichymotrypsin were obtained from Calbiochem (San Diego, Calif.). All other proteases were obtained from Sigma Chemical Co. (St. Louis, Mo.). Mouse serum was obtained from East Acres Biologicals (South Bridge, Mass.). Goat and calf sera were obtained from Gibco BRL (Grand Island, N.Y.). Rat serum was obtained in-house from sacrificed animals. Human serum was obtained from volunteers.
(§4) Cleavage was studied by measuring fluorescence change secondary to AMC release. Fluorescence detection was carried out with a Fluoroskan II 96 well fluorometric plate reader (ICN Biomedicals, Costa Mesa, Calif.), with excitation wavelength 355 nm and emission wavelength 460 nm. Data were collected and analyzed using Deltasoft III software (Biometallics, Princeton, N.J.). All reactions were performed at room temperature by the addition of substrate and proteases into PSA buffer, described below, in a final volume of 200 μL. The results were determined from the initial linear increase of fluorescence and were expressed as the picomoles of AMC released per minute based upon comparison to a standard curve of the fluorescence of known amounts of AMC (i.e., fluorescence was linear form 20 to 300 picomoles of AMC). The data were analyzed by Lineweaver-Burke reciprocal plots to determine the Michaelis-Menten constant (i.e., Km) expressed as the amount of substrate needed to saturate half of the enzyme and the catalytic rate constant (i.e., kcat) expressed as the amount of substrate converted to product per time per amount of enzyme.
(§5) Each assay contains 200 picomoles of the particular protease and 0.2 mM concentration of the particular substrate (i.e., 40,000 picomoles/200 μL of assay volume). The amino acid sequences expressed in one letter amino acid code represent the following amino acid sequences in the three letter amino acid code: EHSSKLQ (Glu-His-Ser-Ser-Lys-Leu-Gln; SEQ ID NO:10), QNKISYQ (Gln-Asn-Lys-Ile-Ser-Tyr-Gln; SEQ ID NO:11), ENKISYQ (Glu-Asn-Lys-Ile-Ser-Tyr-Gln; SEQ ID NO:12), and ATKSKQH (Ala-Thr-Lys-Ser-Lys-Gln-His; SEQ ID NO:13). Determinations listed in the table were carried out with substrates at 0.2 mM concentration in the PSA assay buffer (50 mM Tris/0.1M NaCl pH 7.8). The entry “UD” stands for “undetectable” and means that at most, 0.1 pmole of substrate cleavage per minute per 200 pmole protease took place. Asterisks represent experiments not performed. Abbreviations are as follows: PSA (prostate specific antigen), Chymo (chymotrypsin), Urokin (urokinase), TPA (tissue plasminogen activator), Thromb (thrombin), Kallik (human kallikrein, hK1).

chymotrypsin = target: T3, chymotrypsin (Bos taurus, UniProt P00766); assay: as above; type: biochemical; settings: 0.2 mM substrate, PSA assay buffer pH 7.8
T3 construct: purchased Sigma Chemical Co
Description: as §2, §3, §4, §5

Elastase = assay: as above; type: biochemical; settings: 0.2 mM substrate, PSA assay buffer pH 7.8
Description: as §2, §3, §4, §5

urokinase = target: T4, urokinase (Homo sapiens, UniProt P00749); assay: as above; type: biochemical; settings: 0.2 mM substrate, PSA assay buffer pH 7.8
T4 construct: purchased Calbiochem
Description: as §2, §3, §4, §5

Trypsin = assay: as above; type: biochemical; settings: 0.2 mM substrate, PSA assay buffer pH 7.8
Description: as §2, §3, §4, §5

Plasmin = target: T5, Plasmin (Homo sapiens, UniProt P00747); assay: as above; type: biochemical; settings: 0.2 mM substrate, PSA assay buffer pH 7.8
T5 construct: purchased Calbiochem
T5 sequence (P00747 581-810 limits assumed, species assumed): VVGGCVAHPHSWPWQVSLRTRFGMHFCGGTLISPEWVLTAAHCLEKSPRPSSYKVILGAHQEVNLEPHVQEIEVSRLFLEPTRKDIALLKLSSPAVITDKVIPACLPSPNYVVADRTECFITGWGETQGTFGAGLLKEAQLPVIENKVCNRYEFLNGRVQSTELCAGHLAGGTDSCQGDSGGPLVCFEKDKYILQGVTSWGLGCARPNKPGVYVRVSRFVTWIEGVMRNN
T5 sequence (P00747 97-580 partner limits assumed, species assumed): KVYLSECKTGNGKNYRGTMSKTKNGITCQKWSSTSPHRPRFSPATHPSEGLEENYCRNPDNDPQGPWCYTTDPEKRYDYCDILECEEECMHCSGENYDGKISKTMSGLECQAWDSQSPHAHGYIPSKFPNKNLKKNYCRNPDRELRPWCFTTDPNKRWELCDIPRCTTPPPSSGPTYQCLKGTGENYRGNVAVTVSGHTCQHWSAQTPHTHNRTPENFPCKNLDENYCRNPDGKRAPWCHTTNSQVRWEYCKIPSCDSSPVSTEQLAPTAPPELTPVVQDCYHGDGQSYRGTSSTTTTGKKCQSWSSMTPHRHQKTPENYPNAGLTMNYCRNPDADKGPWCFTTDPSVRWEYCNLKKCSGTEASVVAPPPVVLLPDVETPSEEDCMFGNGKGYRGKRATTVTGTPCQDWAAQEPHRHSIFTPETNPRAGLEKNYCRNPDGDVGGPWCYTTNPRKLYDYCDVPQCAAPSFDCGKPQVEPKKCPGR
Description: as §2, §3, §4, §5

[2] = target: T6, tissue plasminogen activator (TPA) (Homo sapiens, UniProt P00750); assay: as above; type: biochemical; settings: 0.2 mM substrate, PSA assay buffer pH 7.8
T6 construct: purchased Calbiochem
T6 sequence (P00750 36-562, species assumed): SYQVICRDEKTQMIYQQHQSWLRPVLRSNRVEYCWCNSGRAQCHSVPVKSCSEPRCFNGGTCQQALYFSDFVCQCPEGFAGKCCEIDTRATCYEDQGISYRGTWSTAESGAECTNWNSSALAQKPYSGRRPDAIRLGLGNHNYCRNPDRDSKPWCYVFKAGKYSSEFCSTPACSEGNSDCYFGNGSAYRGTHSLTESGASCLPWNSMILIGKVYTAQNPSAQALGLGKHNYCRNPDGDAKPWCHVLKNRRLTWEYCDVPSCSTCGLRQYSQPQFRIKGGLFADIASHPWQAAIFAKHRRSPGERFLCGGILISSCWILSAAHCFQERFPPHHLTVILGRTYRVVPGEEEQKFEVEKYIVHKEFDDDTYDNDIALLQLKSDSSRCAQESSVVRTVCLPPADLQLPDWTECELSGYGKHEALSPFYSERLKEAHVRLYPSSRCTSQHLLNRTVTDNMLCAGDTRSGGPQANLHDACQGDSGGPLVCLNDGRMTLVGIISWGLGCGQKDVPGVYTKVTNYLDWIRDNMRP
Description: as §2, §3, §4, §5

human kallikrein, hK1 = assay: as above; type: biochemical; settings: 0.2 mM substrate, PSA assay buffer pH 7.8
Description: as §2, §3, §4, §5

[3] = target: T7, PSA (prostate specific antigen) (Homo sapiens, UniProt P07288); assay: Cleavage of AMC-labelled peptide substrates by purified PSA (fluorescence of released AMC; Lineweaver-Burke kinetics); type: biochemical
T7 construct: PSA was purified from human seminal plasma; from tissue; host or cells: human seminal plasma
T7 sequence (P07288 25-261): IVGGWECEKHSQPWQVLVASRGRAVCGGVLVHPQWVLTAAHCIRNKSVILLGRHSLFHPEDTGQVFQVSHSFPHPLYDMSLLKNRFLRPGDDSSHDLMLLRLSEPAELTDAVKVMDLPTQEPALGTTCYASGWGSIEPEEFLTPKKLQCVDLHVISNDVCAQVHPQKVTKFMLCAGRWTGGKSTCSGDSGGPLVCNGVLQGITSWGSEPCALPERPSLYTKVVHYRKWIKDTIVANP
Description: as §2, §3, §4, §5
The data in Table 2 are the results of kinetic experiments with the peptide substrates used in Example 1. Experimental details are found in Example 1.
The amino acid sequences expressed in one letter amino acid code represent the following amino acid sequences in the three letter amino acid code: EHSSKLQ (Glu-His-Ser-Ser-Lys-Leu-Gln; SEQ ID NO:10), HSSKLQ (His-Ser-Ser-Lys-Leu-Gln; SEQ ID NO:7), SKLQ (Ser-Lys-Leu-Gln; SEQ ID NO:1), and ATKSKQH (Ala-Thr-Lys-Ser-Lys-Gln-His; SEQ ID NO:13). […]

[4] = Stability of PSA substrates in serum (AMC release); type: in vitro ADME; settings: 0.2 mM substrate
Description: as §3, §4
Because the prodrug can be given systemically via the blood, it is useful to determine the stability of the substrates in sera from a variety of species. The substrates and experimental details are found as described in Example 1.
The amino acid sequences expressed in one letter amino acid code represent the following amino acid sequences in the three letter amino acid code: EHSSKLQ (Glu-His-Ser-Ser-Lys-Leu-Gln; SEQ ID NO:10), QNKISYQ (Gln-Asn-Lys-Ile-Ser-Tyr-Gln; SEQ ID NO:11), ENKISYQ (Glu-Asn-Lys-Ile-Ser-Tyr-Gln; SEQ ID NO:12) and ATKSKQH (Ala-Thr-Lys-Ser-Lys-Gln-His; SEQ ID NO:13). Determinations listed in the table were carried out with substrates at 0.2 mM concentration in the PSA assay buffer (50 mM Tris/0.1M NaCl pH 7.8). AMC is 7-amino-4-methylcoumarin. The human serum used was 100% for each assay. The entry “UD” stands for “undetectable”, and means that not more than 0.01 picomole of substrate per minute was cleaved.

[5] = PSA substrate, PSA assay buffer pH 7.8, Lineweaver-Burke

| SMILES | CC50 (TSU-Pr1 cells) [nM] | IC50 [1] [nM] | Picomoles of substrate cleaved/minute/200 pmoles of indicated protease: Thromb (thrombin) | Picomoles of substrate cleaved/minute/200 pmoles of indicated protease: Chymo (chymotrypsin) | Picomoles of substrate cleaved/minute/200 pmoles of indicated protease: Elastase (Elastase) | Picomoles of substrate cleaved/minute/200 pmoles of indicated protease: Urokin (urokinase) | Picomoles of substrate cleaved/minute/200 pmoles of indicated protease: Trypsin (Trypsin) | Picomoles of substrate cleaved/minute/200 pmoles of indicated protease: Plasmin (Plasmin) | Picomoles of substrate cleaved/minute/200 pmoles of indicated protease: TPA [2] | Picomoles of substrate cleaved/minute/200 pmoles of indicated protease: Kallik (human kallikrein, hK1) | Picomoles of substrate cleaved/minute/200 pmoles of indicated protease: PSA ([3]; 0.2 mM substrate, PSA assay buffer pH 7.8, room temperature) | Kcat [3, 5] [s⁻¹] | Km [3, 5] [µM] | picomles AMC released/minute: Calf [4] | picomles AMC released/minute: Fetal Calf [4] [picomoles/minute] | picomles AMC released/minute: Goat [4] [picomoles/minute] | picomles AMC released/minute: Mouse [4] [picomoles/minute] | picomles AMC released/minute: Rat [4] [picomoles/minute] | picomles AMC released/minute: Human ([4]; human serum 100%) |
| --- | --- | --- | --- | --- | --- | --- | --- | --- | --- | --- | --- | --- | --- | --- | --- | --- | --- | --- | --- |
| CC=C(C)C(=O)OC1C(C)=C2C(C1OC(=O)CCCCCCC)C(C)(OC(C)=O)CC(OC(=O)C=Cc1ccc(N)cc1)C1(O)C2OC(=O)C1(C)O (stereo not shown) [ACT, 8-O-(4-aminocinnamoyl)-8-O-debutanoylthapsigargin] | 100 ± 6 | 18.7 ± 0.2 | – | – | – | – | – | – | – | – | – | – | – | – | – | – | – | – | – |
| Cc1cc(=O)oc2cc(NC(=O)[C@H](Cc3c[nH]cn3)NC(=O)[C@H](CCC(N)=O)NC(=O)[C@H](CCCCN)NC(=O)[C@H](CO)NC(=O)[C@H](CCCCN)NC(=O)[C@@H](NC(=O)[C@H](C)NC(=O)N3CCOCC3)[C@@H](C)O)ccc12 [ATKSKQH, Ala-Thr-Lys-Ser-Lys-Gln-His] ({Morpholide-CO}-ATKSKQH-{AMC}) | – | – | 0.2 picomoles/minute/200 pmoles pr | 38.8 picomoles/minute/200 pmoles pr | UD (at most, 0.1 pmole of substrate cleavage per minute per 200 pmole protease took place) | UD (at most, 0.1 pmole of substrate cleavage per minute per 200 pmole protease took place) | UD (at most, 0.1 pmole of substrate cleavage per minute per 200 pmole protease took place) | UD (at most, 0.1 pmole of substrate cleavage per minute per 200 pmole protease took place) | UD (at most, 0.1 pmole of substrate cleavage per minute per 200 pmole protease took place) | UD (at most, 0.1 pmole of substrate cleavage per minute per 200 pmole protease took place) | 16.0 picomoles/minute/200 pmoles pr | 0.0091 | 310 | UD (not more than 0.01 picomole of substrate per minute was cleaved) | 1.19 | 0.35 | 0.60 | 4.31 | UD (not more than 0.01 picomole of substrate per minute was cleaved) |
